According to ChEMBL document CHEMBL4616608, “Discovery of a lead series of potent benzodiazepine 5-HT2C receptor agonists with high selectivity in functional and binding assays” (Bioorg Med Chem Lett, 2020):

Columns and labels:
[1] = in vivo; conditions: rat, brain, po, 10 mg/kg
[2] = in vivo; conditions: rat, plasma, po, 10 mg/kg
[3] = in vivo; conditions: rat, cerebrospinal fluid, po, 10 mg/kg

Work on CC1(C)CN2CCNCc3ccc(F)c1c32 yielded a concentration at 1 h [1] of 8860 ng/g, a concentration at 1 h [2] of 608 ng/mL and a concentration at 1 h [3] of 170 ng/mL.
